Article PMC7449161, “Nonstationary Pharmacokinetics of Caspofungin in ICU Patients” (Antimicrobial Agents and Chemotherapy, 2020)
Like-named read-outs stand apart in the source and are kept apart here.

Key:
C. glabrata = settings: preclinical pharmacodynamic target; cited from earlier work
C. albicans = settings: preclinical pharmacodynamic target; cited from earlier work
Experimental: The simulations of PTA were based on model parameters from bootstrap samples (n = 1,000) in order to include the parameter uncertainty. Predictions of AUC at steady state were performed for the standard 50-mg maintenance dose.

[1] = cited from earlier work
Source text: There are little data concerning the influence of extracorporeal membrane oxygenation (ECMO) on caspofungin pharmacokinetics ([9], [10]). ECMO is known to alter drug pharmacokinetics due to drug extraction during the procedure and a large volume of exogenous blood needed for ECMO circuit. The changes include increased volume of distribution and decreased clearance ([11]). The interactions between the ECMO circuit and the drug are not always easily predictable, but one of the vital drug characteristics determining circuit drug loss is the lipophilicity and protein binding ([12], [13]). Since ca ... || The changes in parameters with time require further investigation as they might be caused by a process that our study was not able to capture and describe. It could be the result of temporal changes in protein binding as caspofungin is highly protein-bound (97%) ([6]). Another possibility is nonlinearity in metabolic or distribution processes.

C. parapsilosis = settings: preclinical pharmacodynamic target; cited from earlier work
[2] = Population pharmacokinetics of caspofungin in ICU patients (two-compartment nonlinear mixed-effects model); format: in vivo, human; settings: for clearance: human, serum, iv; for typical AUC0–24: maintenance dose of 50 mg
Source text: This study was registered at ClinicalTrials.gov under ID NCT03399032. It was a prospective observational study conducted in adult critically ill patients admitted to ICU due to severe sepsis requiring broad-spectrum antibiotics with a high risk of fungal infection. Both medical and surgical patients with any type of infection (pulmonary, abdominal, urinary tract, etc.) were included. Eligible consent was obtained from each patient or his or her attendant. Allergy to caspofungin, lack of consent to participate in the study, and age below 18 or above 80 years were the exclusion criteria. Thirty-three patients were enrolled in the study. Data from three patients were excluded from analysis due to technical issue with handling the samples, which made them unsuitable for analysis and the concentrations could not be determined.
The antibiotic regimen included broad-spectrum antibacterial antibiotics plus caspofungin as empirical antifungal therapy (70 mg i.v. on the first day, and 50 mg i.v. on the consecutive days) once daily. In three patients with liver failure caspofungin doses were reduced (50 mg i.v. initial and 35 mg i.v. maintenance dose). Any site of infection was treated in the manner.
Blood samples (3 ml) were collected 0.5, 2, 4, 8, 12, and 24 h after each dose of caspofungin for three consecutive days from the standard arterial cannula. Thirty minutes after each sample collection, blood was centrifuged for 10 min at 3,000 rpm. Subsequently, the supernatant was collected and frozen. Serum caspofungin concentrations were measured with high-performance liquid chromatography (HPLC).
Plasma samples were prepared for analysis according to a previously described procedure ([3]). A Dionex chromatographic system (Dionex, Sunnyvale, CA), equipped with a P580 LPG LC-6A gradient pump, UVD340S UV-visible detector, and a Rheodyne 7725 loop injector with a sufficient volume of 20 μl was employed in this study. Chromatographic separation was achieved on a Zorbax SB C18 column (150 × 4.6 mm × 5 μm) in isocratic mode. The mobile phase consisted of 20 mM triethylammonium phosphate buffer (pH 3.0): acetonitrile-methanol (50:40:10 [vol/vol/vol]; Fluka, HPLC grade). The mobile phase flow rate was 1.0 ml/min, and caspofungin absorbance was measured at 210 nm. The analytical method was validated in terms of linearity, the limits of detection (LOD) and quantification (LOQ), precision, and accuracy. The standard curves were linear over a concentration range from 0.25 to 10.0 μg/ml with an R^2 of 0.987. The LOD and LOQ values for caspofungin were 0.08 and 0.18 μg/ml, respectively. The intra- and interday accuracies ranged from 98.1 to 102.8%, and the coefficients of variation (CVs) were between 0.8 and 3.4%.
Population nonlinear mixed-effects modeling was conducted using NONMEM software (v7.3; Icon Development Solutions, Ellicott City, MD), GNU Fortran 95 compiler (GCC 4.6.0), and Wings for NONMEM (WFN741, http://wfn.sourceforge.net). The first-order conditional estimation method with η-ε interaction was employed throughout the model-building procedure. R computing environment (R Core Team 2019) was used for data processing and visualization.
The minimum value of the NONMEM objective function (OFV), typical goodness-of-fit diagnostic plots, and the evaluation of the precision of pharmacokinetic parameters and variability estimates were used to discriminate between various models during the model-building process. For hierarchical models, the decrease in OFV of 6.62 units defining an improved fit at a P of <0.01 for one additional parameter was considered to be statistically significant. The uncertainty of final model parameters was determined by nonparametric bootstrap with 1,000 replicates. The 90% confidence intervals (90% CI) for model parameters were constructed based on bootstrap results.
During the structural model-building step, candidate one-, two-, and three-compartment models were tested to describe the pharmacokinetics of caspofungin. […]

[3] = cited from earlier work; for clearance: ICU patients
Source text: Although the CL after the first dose (0.563 liters/h, 6.7%RSE) is well within the values reported in literature, the CL after the second dose (0.737 liters/h, 6.1%RSE) is within the highest previously reported values, and the CL after the third dose (1.01 liters/h, 9.1%RSE) almost doubles compared to CL after the first dose and literature CL values.

[4] = cited from earlier work; for CL: healthy subjects
[5] = patients with liver failure, maintenance dose of 35 mg, from individual parameters

CC[C@H](C)C[C@H](C)CCCCCCCCC(=O)N[C@H]1C[C@@H](O)[C@@H](NCCN)NC(=O)[C@@H]2[C@@H](O)CCN2C(=O)[C@H]([C@H](O)CCN)NC(=O)[C@H]([C@H](O)[C@@H](O)c2ccc(O)cc2)NC(=O)[C@@H]2C[C@@H](O)CN2C(=O)[C@H]([C@@H](C)O)NC1=O [caspofungin]
target AUC/MIC (C. glabrata): 450
target AUC/MIC (C. albicans): 865
protein bound [1]: 97%
target AUC/MIC (C. parapsilosis): 1,185
decrease in exposure between doses ([2]; CL2 versus CL1): 24%
decrease in exposure between doses ([2]; CL3 versus CL1): 44%
decrease in caspofungin exposure ([2]; associated with increasing clearance with subsequent doses, ICU patients): > 20%
clearance ([2]; estimated during model building process, ICU patients, read-out: mean CL for all three occasions (converted)): 11.8 mL/min
clearance ([2]; typical clearance after first dose, 30 ICU patients, 70 mg i.v. day 1, 50 mg i.v. once daily after, HPLC-UV, final model, read-out: θCL day 1, Estimate (%RSE) (converted)): 9.38 mL/min
clearance ([2]; typical clearance after second dose, 30 ICU patients, i.v., final model, read-out: θCL day 2, Estimate (%RSE) (converted)): 12.3 mL/min
clearance ([2]; typical clearance after third dose, 30 ICU patients, i.v., final model, read-out: θCL day 3, Estimate (%RSE) (converted)): 16.8 mL/min
θQ, Estimate (%RSE) ([2]; intercompartmental clearance, 30 ICU patients, final model): 1.31 (15.7) liter/h
typical AUC0–24 ([2]; typical clearance after first dose (CL1)): 89 mg ⋅ h/liter
typical AUC0–24 ([2]; typical clearance after second dose (CL2)): 68 mg ⋅ h/liter
typical AUC0–24 ([2]; typical clearance after third dose (CL3)): 50 mg ⋅ h/liter
minimal AUC0–24 as % of the 98 mg ⋅ h/liter target ([2]; patients with liver failure, 35 mg maintenance): 23%
maximum AUC0–24 as % of the value required for efficacy ([2]; patients with liver failure, 35 mg maintenance, 98 mg ⋅ h/liter target): 62%
AUC0–24, maximum value [2, 5]: 61 mg ⋅ h/liter
AUC0–24, minimal value [2, 5]: 23 mg ⋅ h/liter
θV1 day 1, Estimate (%RSE) ([2]; volume of distribution of central compartment after first dose, 30 ICU patients, final model): 6.04 (7.0) liter
θV1 day 2, Estimate (%RSE) ([2]; volume of distribution of central compartment after second dose, 30 ICU patients, final model): 7.32 (5.3) liter
θV1 day 3, Estimate (%RSE) ([2]; volume of distribution of central compartment after third dose, 30 ICU patients, final model): 7.70 (5.3) liter
θV2, Estimate (%RSE) ([2]; volume of distribution of peripheral compartment, 30 ICU patients, final model): 5.13 (13.7) liter
mean clearance ([3]; ICU patients (Child-Pugh B score)): 0.55 L/h
clearance ([3]; day 3 of the study): 0.57 L/h
clearance ([3]; day 7 of the study): 0.54 L/h
clearance [3]: 0.66 L/h
CL, value provided in the drug label [3]: 0.72 L/h
mean clearance ([3]; patients undergoing CRRT): 0.62 L/h
mean clearance ([3]; patients with invasive aspergillosis, value for a 76-kg patient): 0.403 L/h
CL ([4]; sampling for 26 weeks): 0.579 L/h
CL ([4]; sampling for 28 days): 0.631 L/h
quantifiable concentrations as long as, after administration ([4]; radioactive labeled caspofungin): 22.3 weeks
